Three compounds from publication PMC9425443 (RSC Advances, 2022) can be followed below.

Series [1] has as its target T1, CYP142A1 C296S (Mycobacterium tuberculosis, UniProt P9WPL5, C296S). It is filed as biochemical.
Series [2] has as its target T2, CYP142A1 C281S (Mycobacterium tuberculosis, UniProt P9WPL5, C281S). It is filed as biochemical.
For series [3], the target named is T3, CYP142A1 C316S (Mycobacterium tuberculosis, UniProt P9WPL5, C316S). It is filed as biochemical.
Series [4] concerns the target T4, CYP142A1 C123S (Mycobacterium tuberculosis, UniProt P9WPL5, C123S). It is filed as biochemical.
Series [5] addresses T5, CYP142A1 C110S (Mycobacterium tuberculosis, UniProt P9WPL5, C110S). It is filed as biochemical.
Series [6] addresses T6, CYP142A1 C118S (Mycobacterium tuberculosis, UniProt P9WPL5, C118S). It is filed as biochemical.
Series [7] concerns the target T1, CYP142A1 C296S. The settings on record: pH 7.4.
Series [8] deals with T4, CYP142A1 C123S. The settings on record: pH 7.4.
Series [9] addresses T2, CYP142A1 C281S. To be noted: pH 7.4.
Series [10] deals with T3, CYP142A1 C316S. The settings on record: pH 7.4.
For series [11], the target named is T5, CYP142A1 C110S. To be noted: pH 7.4.
Series [12] addresses T6, CYP142A1 C118S. The settings on record: pH 7.4.

Structures can show the parent of a compound that is named as a salt.

Broadly, the kcat is the number of substrate molecules converted per active site and unit of time at saturation. With `CC(C)CCC[C@@H](C)[C@H]1CC[C@H]2[C@@H]3CCC4=CC(=O)CC[C@]4(C)[C@H]3CC[C@]12C` [Cholest-4-en-3-one], the kcat in series [1] worked out at 0.0767 ± 0.00583 s⁻¹; in [2], 0.0917 ± 0.00617 s⁻¹; in series [3] it was 0.0783 ± 0.00617 s⁻¹; in series [4] it was 0.085 ± 0.00617 s⁻¹; in series [5], 0.11 ± 0.0113 s⁻¹; in [6], 0.0933 ± 0.00633 s⁻¹.

A word on the Kd: it is a measure of binding affinity in units of concentration. A higher Kd goes with lower affinity. Regarding `CC(C)CCC[C@@H](C)[C@H]1CC[C@H]2[C@@H]3CC=C4C[C@@H](OS(=O)(=O)O)CC[C@]4(C)[C@H]3CC[C@]12C` [Cholesteryl sulfate], the Kd in [7] was 25 ± 9.6 µM; in series [8], 35 ± 9.3 µM; in [9], 37 ± 8.8 µM; in series [10] it was 26 ± 8 µM; in series [11] it was 37 ± 8.7 µM; in [12], 33 ± 4.3 µM.

For Cholesteryl propionate, the Kd in [7] was 48 ± 5.9 µM; in [8], 23 ± 5 µM; in [9] it was 47 ± 7.6 µM; in [10] it was 46 ± 6.8 µM; in series [11] it was 35 ± 4.9 µM; in series [12] it was 43 ± 10 µM.
